Assay results from ChEMBL document CHEMBL1201862, “PubChem BioAssay data set” (2004).
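Protocol summary: plate cells (96-well), add compound at 5 concentrations, incubate 48 h, interpolate endpoints linearly. Here, GI50 denotes the concentration required for 50% inhibition of growth.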 Active and inactive are the calls of the source. Cut-off read from the data, not from the text of the source: active = GI50 up to about 1.1 µM and inactive = higher.

Columns and labels:
Assay in all cases: growth of human tumour cells (NCI), 48 h
[1] = test system: DU-145
[2] = test system: UACC-62
[3] = test system: SF-295
[4] = test system: SNB-19
[5] = test system: OVCAR-5
[6] = test system: UO-31
[7] = test system: IGROV-1
[8] = test system: CAKI-1
[9] = test system: TK-10
[10] = test system: OVCAR-8
[11] = test system: HCC 2998
[12] = test system: HT-29
[13] = test system: RPMI-8226
[14] = test system: UACC-257
[15] = test system: NCI/ADR-RES
[16] = test system: U-251
[17] = test system: OVCAR-3
[18] = test system: OVCAR-4
[19] = test system: SW-620
[20] = test system: MDA-N

Measured: GI50

N/C(=N/c1ccc(O)cc1)S(=O)O
inactive: [1] > 100 µM | [2] > 100 µM | [3] > 100 µM | [4] > 100 µM | [5] > 100 µM | [6] > 100 µM | [7] > 100 µM | [8] > 100 µM | [9] > 100 µM | [10] > 100 µM | [11] > 100 µM | [12] > 100 µM | [13] > 100 µM | [14] > 100 µM | [15] > 100 µM | [16] > 100 µM | [17] > 100 µM | [18] > 100 µM | [19] > 100 µM | [20] > 100 µM

O=NN(Cc1ccc(Cl)cc1)C(C(=O)O)c1ccccc1 (stereo not given)
inactive: [1] > 100 µM | [2] > 100 µM | [3] > 100 µM | [4] > 100 µM | [5] > 100 µM | [6] > 100 µM | [7] > 100 µM | [8] > 100 µM | [9] > 100 µM | [10] > 100 µM | [11] 43.9 µM | [12] > 100 µM | [13] > 100 µM | [14] 47.2 µM | [15] > 100 µM | [16] > 100 µM | [17] > 100 µM | [18] > 100 µM | [19] > 100 µM | [20] > 100 µM

O=C(/C=C/c1ccc(O)cc1)c1ccc(O)cc1 [4,4'-DIHYDROXYCHALCONE]
inactive: [1] 34.2 µM | [2] 25.5 µM | [3] 31.8 µM | [4] 32.7 µM | [5] 33.3 µM | [6] 22 µM | [7] 32.1 µM | [8] 18.1 µM | [9] 46.9 µM | [10] 16.7 µM | [11] 24 µM | [12] 19.9 µM | [13] 11.2 µM | [14] 29.5 µM | [15] 21.6 µM | [16] 18 µM | [17] 22 µM | [18] > 69.8 µM | [19] 26.1 µM | [20] 27.4 µM

C=C(CCC/C(C)=C/C=C/[C@H](C)CCCc1ccoc1)C[C@@H]1OC(=O)[C@H](C)[C@@H]1O
inactive: [1] 8.55 µM | [2] 7.98 µM | [3] 8.83 µM | [4] 8.81 µM | [5] 11 µM | [6] 7.69 µM | [7] 11.2 µM | [8] 8.99 µM | [9] 10.6 µM | [10] 11.9 µM | [11] 10.1 µM | [12] 15.1 µM | [13] 10.8 µM | [14] 7.18 µM | [15] 9.71 µM | [16] 11.8 µM | [17] 7.64 µM | [18] 4.73 µM | [19] 12.8 µM | [20] 9.98 µM

CCN(CC)c1c(-c2c(N(CC)CC)c(OC(C)=O)c3sccn3c2=O)c(=O)n2ccsc2c1OC(C)=O
inactive: [1] > 100 µM | [2] 81.7 µM | [3] 32 µM | [4] 59.6 µM | [5] > 100 µM | [6] 93.1 µM | [7] 68.1 µM | [8] > 100 µM | [9] 33.2 µM | [10] 33 µM | [11] > 100 µM | [12] > 100 µM | [13] > 100 µM | [14] > 100 µM | [15] 49.5 µM | [16] 37.5 µM | [17] > 100 µM | [18] > 100 µM | [19] > 100 µM | [20] > 100 µM
